This passage reports IC50 results from US7700604B2, “Hydantoin derivatives as metalloproteinase inhibitors” (AstraZeneca AB, priority 2004, dated 2010).

Common to all, as to format: biochemical
The target in experiment [1] is T1, Recombinant human MMP14 catalytic domain (Homo sapiens, UniProt P50281).
T1 construct: Recombinant human MMP14 catalytic domain; made in house
Description: Isolated enzyme assay MMP14 (fluorogenic substrate). The following applies: substrate Mca-Pro-Cha-Gly-Nva-His-Ala-Dpa-NH2 10 μM, 60 minutes at room temperature, pH 7.5, read-out: hMMP14 IC50. How it is done:
Recombinant human MMP14 catalytic domain may be expressed and purified as described by Parkar A. A. et al, (2000), Protein Expression and Purification, 20, 152. The purified enzyme can be used to monitor inhibitors of activity as follows: MMP14 (10 ng/ml final concentration) is incubated for 60 minutes at room temperature with the synthetic substrate Mca-Pro-Cha-Gly-Nva-His-Ala-Dpa-NH2 (10 μM) in assay buffer (0.1M “Tris-HCl” (trade mark) buffer, pH 7.5 containing 0.1M NaCl, 20 mM CaCl2, 0.020 mM ZnCl and 0.05% (w/v) “Brij 35” (trade mark) detergent) in the presence (5 concentrations) or absence of inhibitors. Activity is determined by measuring the fluorescence at λex 320 nm and λem 405 nm. Percent inhibition is calculated as follows: % Inhibition is equal to the [Fluorescenceplus inhibitor−Fluorescencebackground] divided by the [Fluorescenceminus inhibitor−Fluorescencebackground].

Experiment [2] addresses T2, Recombinant human MMP12 catalytic domain (Homo sapiens, UniProt P39900).
T2 construct: Recombinant human MMP12 catalytic domain; made in house
Nature of the experiment: Isolated enzyme assay MMP12 (fluorogenic substrate). The following applies: substrate Mca-Pro-Cha-Gly-Nva-His-Ala-Dpa-NH2 10 μM, 60 minutes at room temperature, pH 7.3, read-out: hMMP12 IC50. As for the experimental part: Recombinant human MMP12 catalytic domain may be expressed and purified as described by Parkar A. A. et al, (2000), Protein Expression and Purification, 20, 152. The purified enzyme can be used to monitor inhibitors of activity as follows: MMP12 (50 ng/ml final concentration) is incubated for 60 minutes at room temperature with the synthetic substrate Mca-Pro-Cha-Gly-Nva-His-Ala-Dpa-NH2 (10 μM) in assay buffer (0.1M “Tris-HCl” (trade mark) buffer, pH 7.3 containing 0.1M NaCl, 20 mM CaCl2, 0.020 mM ZnCl and 0.05% (w/v) “Brij 35” (trade mark) detergent) in the presence (10 concentrations) or absence of inhibitors. Activity is determined by measuring the fluorescence at λex 320 nm and λem 405 nm. Percent inhibition is calculated as follows: % Inhibition is equal to the [Fluorescenceplus inhibitor−Fluorescencebackground] divided by the [Fluorescenceminus inhibitor−Fluorescencebackground]. MMP8

The target of experiment [3] is T3, Recombinant human MMP9 catalytic domain (Homo sapiens, UniProt P14780).
T3 sequence (P14780 with tags, fused parts or gaps DEL216-390): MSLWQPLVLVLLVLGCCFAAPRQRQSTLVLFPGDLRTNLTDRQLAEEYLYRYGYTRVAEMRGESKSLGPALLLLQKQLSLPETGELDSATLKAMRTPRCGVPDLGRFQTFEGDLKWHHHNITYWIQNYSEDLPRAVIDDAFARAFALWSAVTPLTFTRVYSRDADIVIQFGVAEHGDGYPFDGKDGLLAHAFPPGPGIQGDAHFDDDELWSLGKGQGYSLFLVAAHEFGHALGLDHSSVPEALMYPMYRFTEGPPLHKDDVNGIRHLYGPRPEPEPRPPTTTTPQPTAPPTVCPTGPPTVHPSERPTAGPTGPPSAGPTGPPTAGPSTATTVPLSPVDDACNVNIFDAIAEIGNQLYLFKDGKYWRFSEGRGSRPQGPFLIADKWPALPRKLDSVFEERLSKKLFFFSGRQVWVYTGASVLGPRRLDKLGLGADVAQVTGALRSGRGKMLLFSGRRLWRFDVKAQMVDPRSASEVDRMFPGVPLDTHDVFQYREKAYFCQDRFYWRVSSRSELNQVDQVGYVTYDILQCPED
Description: Isolated enzyme assay MMP9 (fluorogenic substrate). The following applies: substrate Mca-Pro-Cha-Gly-Nva-His-Ala-Dpa-NH2 5 μM, 30 minutes at RT, pH 7.3, read-out: hMMP9 IC50. How it is done: Recombinant human MMP9 catalytic domain was expressed and then purified by Zn chelate column chromatography followed by hydroxamate affinity column chromatography. The enzyme can be used to monitor inhibitors of activity as follows: MMP9 (5 ng/ml final concentration) is incubated for 30 minutes at RT with the synthetic substrate Mca-Pro-Cha-Gly-Nva-His-Ala-Dpa-NH2 (5 μM) in assay buffer (0.1M “Tris-HCl” (trade mark) buffer, pH 7.3 containing 0.1M NaCl, 20 mM CaCl2, 0.020 mM ZnCl and 0.05% (w/v) “Brij 35” (trade mark) detergent) in the presence (10 concentrations) or absence of inhibitors. Activity is determined by measuring the fluorescence at λex 320 nm and λem 405 nm. Percent inhibition is calculated as follows: % Inhibition is equal to the [Fluorescenceplus inhibitor−Fluorescencebackgound] divided by the [Fluorescenceminus inhibitor−Fluorescencebackground]. […]

A value given as a limit tells only on which side of the number the result lay.

T2 sequence (P39900 106-263 limits assumed): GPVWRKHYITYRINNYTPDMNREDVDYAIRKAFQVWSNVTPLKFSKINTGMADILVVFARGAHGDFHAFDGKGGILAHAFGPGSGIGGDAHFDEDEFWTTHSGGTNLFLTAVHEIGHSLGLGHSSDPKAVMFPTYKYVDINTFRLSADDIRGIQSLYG

For the compound `C[C@]1(CS(=O)(=O)N2CCc3cc(-c4ccc(Cl)cc4)ccc3C2)NC(=O)NC1=O` [Example 2, (5S)-5-({[6-(4-Chlorophenyl)-3,4-dihydroisoquinolin-2(1H)-yl]sulfonyl}methyl)-5-methylimidazolidine-2,4-dione], the values for the IC50 in experiment [1], in experiment [2] and in experiment [3] were 0.415 µM, 0.0014 µM and 0.0035 µM, respectively.

On to `C[C@]1(CS(=O)(=O)N2CCc3cc(-c4cnc(C(F)(F)F)nc4)ccc3C2)NC(=O)NC1=O` [Example 1, (5)-5-Methyl-5-({[6-[2-(trifluoromethyl)pyrimidin-5-yl]-3,4-dihydroisoquinolin-2(1H)-yl]sulfonyl}methyl)imidazolidine-2,4-dione], for which the IC50 is over 10 µM in experiment [1], 0.0104 µM in experiment [2] and 0.0293 µM in experiment [3].

Turning to `C[C@]1(CS(=O)(=O)N2CCc3cc(-c4ccc(Cl)cc4)ncc3C2)NC(=O)NC1=O` [Example 5, (5S)-5-({[6-(4-Chlorophenyl)-3,4-dihydro-2,7-naphthyridin-2(1H)-yl]sulfonyl}methyl)-5-methylimidazolidine-2,4-dione], the IC50 is 1.99 µM in experiment [1], 0.007 µM in experiment [2] and 0.0083 µM in experiment [3].

By IC50 is commonly meant the midpoint of a concentration-inhibition curve.
